# The source made the active and inactive calls. The rule behind the calls is not given here.
# How the values were obtained:
# MIA PaCa-2 [1] = experiment: Antitumor activity against human MIA PaCa-2 cells xenografted in athymic BALB/c-nu mouse assessed as fold change in leucine level in tumor at 10 mg/kg/day, ip administered five times per week for 4 weeks by LC-MS analysis; assay type: functional
# MIA PaCa-2 [2] = experiment: Antitumor activity against human MIA PaCa-2 cells xenografted in athymic BALB/c-nu mouse assessed as fold change in arabinosyl hypoxanthine level in tumor at 2 mg/kg/day, ip administered five times per week for 4 weeks by LC-MS analysis; assay type: functional
# MIA PaCa-2 [3] = experiment: Antitumor activity against human MIA PaCa-2 cells xenografted in athymic BALB/c-nu mouse assessed as fold change in D-glucuronicacid level in tumor at 10 mg/kg/day, ip administered five times per week for 4 weeks by LC-MS analysis; assay type: functional
# MIA PaCa-2 [4] = experiment: Antitumor activity against human MIA PaCa-2 cells xenografted in athymic BALB/c-nu mouse assessed as fold change in biotin level in tumor at 2 mg/kg/day, ip administered five times per week for 4 weeks by LC-MS analysis; assay type: functional
# PANC-1 [5] = experiment: Inhibition of autophagy in human PANC-1 cells in nutrient-deprived medium assessed as downregulation of LC3-I protein expression measured after 6 hrs by Western blot analysis; assay type: functional, cell-based; details: dose 5-20 µM
# MIA PaCa-2 [6] = experiment: Antimetastatic activity in human MIA PaCa-2 cells in nutrient-rich medium assessed as open wound area at 20 uM measured every 15 mins for 24 hrs by live cell imaging analysis (reference value: 62%); assay type: functional
# MIA PaCa-2 [7] = experiment: Antimetastatic activity in human MIA PaCa-2 cells in nutrient-rich medium assessed as open wound area at 20 uM measured every 15 mins for 48 hrs by live cell imaging analysis (reference value: 17%); assay type: functional
# MIA PaCa-2 [8] = experiment: Antitumor activity against human MIA PaCa-2 cells xenografted in athymic BALB/c-nu mouse assessed as fold change in glycerol 3-phosphate level in tumor at 2 mg/kg/day, ip administered five times per week for 4 weeks by LC-MS analysis; assay type: functional
# MIA PaCa-2 [9] = experiment: Antitumor activity against human MIA PaCa-2 cells xenografted in athymic BALB/c-nu mouse assessed as fold change in D-glucosamine 6-phosphate level in tumor at 10 mg/kg/day, ip administered five times per week for 4 weeks by LC-MS analysis; assay type: functional
# MIA PaCa-2 [10] = experiment: Antitumor activity against human MIA PaCa-2 cells xenografted in athymic BALB/c-nu mouse assessed as fold change in asparagine level in tumor at 2 mg/kg/day, ip administered five times per week for 4 weeks by LC-MS analysis; assay type: functional
# MIA PaCa-2 [11] = experiment: Antitumor activity against human MIA PaCa-2 cells xenografted in athymic BALB/c-nu mouse assessed as reduction in mTOR phosphorylation at S2481 residue in tumor at 10 mg/kg/day, ip administered five times per week for 4 weeks by Western blot analysis; assay type: functional, organism-based
# MIA PaCa-2 [12] = experiment: Antitumor activity against human MIA PaCa-2 cells xenografted in athymic BALB/c-nu mouse assessed as fold change in 2,6-diaminopimelicacid level in tumor at 2 mg/kg/day, ip administered five times per week for 4 weeks by LC-MS analysis; assay type: functional
# MIA PaCa-2 [13] = experiment: Preferential cytotoxicity against human MIA PaCa-2 cells in nutrient-deprived medium assessed as alteration in cell morphology by measuring cell rounding at 5 uM measured after 24 hrs by acridine orange and ethidium bromide dual fluorescent staining based imaging analysis; assay type: functional
# MIA PaCa-2 [14] = experiment: Antitumor activity against human MIA PaCa-2 cells xenografted in athymic BALB/c-nu mouse assessed as fold change in N-acetylneuraminicacid level in tumor at 10 mg/kg/day, ip administered five times per week for 4 weeks by LC-MS analysis; assay type: functional
# MIA PaCa-2 [15] = experiment: Antitumor activity against human MIA PaCa-2 cells xenografted in athymic BALB/c-nu mouse assessed as fold change in methionine level in tumor at 2 mg/kg/day, ip administered five times per week for 4 weeks by LC-MS analysis; assay type: functional
# MIA PaCa-2 [16] = experiment: Preferential cytotoxicity against human MIA PaCa-2 cells in nutrient-deprived medium assessed as alteration in cell morphology by measuring rupture of cell membrane at 5 uM measured after 24 hrs by acridine orange and ethidium bromide dual fluorescent staining based imaging analysis; assay type: functional
# MIA PaCa-2 [17] = experiment: Antitumor activity against human MIA PaCa-2 cells xenografted in athymic BALB/c-nu mouse assessed as fold change in Gly-Leu metabolite level in tumor at 2 mg/kg/day, ip administered five times per week for 4 weeks by LC-MS analysis; assay type: functional
# MIA PaCa-2 [18] = experiment: Antitumor activity against human MIA PaCa-2 cells xenografted in athymic BALB/c-nu mouse assessed as fold change in cytidine diphosphate ethanolamine level in tumor at 10 mg/kg/day, ip administered five times per week for 4 weeks by LC-MS analysis; assay type: functional
# MIA PaCa-2 [19] = experiment: Antitumor activity against human MIA PaCa-2 cells xenografted in athymic BALB/c-nu mouse assessed as reduction in Akt phosphorylation at S473 residue in tumor at 10 mg/kg/day, ip administered five times per week for 4 weeks by Western blot analysis; assay type: functional, organism-based
# MIA PaCa-2 [20] = experiment: Antitumor activity against human MIA PaCa-2 cells xenografted in athymic BALB/c-nu mouse assessed as fold change in proline level in tumor at 2 mg/kg/day, ip administered five times per week for 4 weeks by LC-MS analysis; assay type: functional
# PANC-1 [21] = experiment: Inhibition of Akt/mTOR signaling pathway in human PANC-1 cells in nutrient-deprived medium assessed as reduction in AKT phosphorylation at S473 residue measured after 6 hrs by Western blot analysis; assay type: cell-based; details: dose 5-20 µM
# [22] = Toxicity in athymic BALB/c-nu mouse xenografted with human MIA PaCa-2 cells assessed as animal death at 2 to 10 mg/kg/day, ip administered five times per week for 4 weeks; assay type: organism-based; details: in vivo, 672 h, dose 2-10 mg/kg/day
# MIA PaCa-2 [23] = experiment: Antitumor activity against human MIA PaCa-2 cells xenografted in athymic BALB/c-nu mouse assessed as fold change in 3-sulfolacticacid level in tumor at 10 mg/kg/day, ip administered five times per week for 4 weeks by LC-MS analysis; assay type: functional
# MIA PaCa-2 [24] = experiment: Antitumor activity against human MIA PaCa-2 cells xenografted in athymic BALB/c-nu mouse assessed as fold change in serine level in tumor at 10 mg/kg/day, ip administered five times per week for 4 weeks by LC-MS analysis; assay type: functional
# MIA PaCa-2 [25] = experiment: Antitumor activity against human MIA PaCa-2 cells xenografted in athymic BALB/c-nu mouse assessed as fold change in hypoxanthine level in tumor at 10 mg/kg/day, ip administered five times per week for 4 weeks by LC-MS analysis; assay type: functional
# MIA PaCa-2 [26] = experiment: Antitumor activity against human MIA PaCa-2 cells xenografted in athymic BALB/c-nu mouse assessed as fold change in N-acetyl- L-glutamic acid level in tumor at 2 mg/kg/day, ip administered five times per week for 4 weeks by LC-MS analysis; assay type: functional
# MIA PaCa-2 [27] = experiment: Antitumor activity against human MIA PaCa-2 cells xenografted in athymic BALB/c-nu mouse assessed as fold change in 1-aminocyclopropanecarboxylicacid level in tumor at 2 mg/kg/day, ip administered five times per week for 4 weeks by LC-MS analysis; assay type: functional
# PANC-1 [28] = experiment: Inhibition of Akt/mTOR signaling pathway in human PANC-1 cells in DMEM media assessed as reduction in mTOR phosphorylation at S2481 residue at 5 to 20 uM measured after 6 hrs by Western blot analysis; assay type: cell-based; details: dose 5-20 µM
smiles,measurement,setting,value
COc1cc(O)c(C(=O)[C@@H]2CC=C(CCC=C(C)C)C[C@H]2c2ccccc2)c(O)c1,fold change (FC),MIA PaCa-2 [1],0.41
same,fold change (FC),MIA PaCa-2 [2],0.46
same,fold change (FC),MIA PaCa-2 [3],0.68
same,fold change (FC),MIA PaCa-2 [4],0.86
same,inhibition,PANC-1 [5],Dose-Dependent Effect
same,Activity,MIA PaCa-2 [6],87%
same,Activity,MIA PaCa-2 [7],66%
same,fold change (FC),MIA PaCa-2 [8],0.4
same,fold change (FC),MIA PaCa-2 [9],0.36
same,fold change (FC),MIA PaCa-2 [10],0.33
same,Activity,MIA PaCa-2 [11],Active
same,fold change (FC),MIA PaCa-2 [12],0.53
same,Activity,MIA PaCa-2 [13],Active
same,fold change (FC),MIA PaCa-2 [14],0.4
same,fold change (FC),MIA PaCa-2 [15],0.44
same,Activity,MIA PaCa-2 [16],Active
same,fold change (FC),MIA PaCa-2 [17],0.45
same,fold change (FC),MIA PaCa-2 [18],0.16
same,Activity,MIA PaCa-2 [19],Active
same,fold change (FC),MIA PaCa-2 [20],0.62
same,inhibition,PANC-1 [21],Dose-Dependent Effect
same,Activity,[22],Non-Toxic
same,fold change (FC),MIA PaCa-2 [23],0.44
same,fold change (FC),MIA PaCa-2 [24],0.5
same,fold change (FC),MIA PaCa-2 [25],0.4
same,fold change (FC),MIA PaCa-2 [26],0.45
same,fold change (FC),MIA PaCa-2 [27],0.8
same,inhibition,PANC-1 [28],inactive
